# Measurements as given in article PMC5218480 (PLoS ONE, 2017).
# System: MV-4-11 cells
# Experiment: Gene expression microarray analysis (Affymetrix PrimeView) and GSEA
# Format: cell-based, human
# Design: RFU PODN (11730768_x_at) / Fold change /veh PODN (11730768_x_at) / RFU LINC00158 (11744669_a_at) / Fold change /veh LINC00158 (11744669_a_at) / RFU DUSP10 (11751237_a_at) / Fold change /veh DUSP10 (11751237_a_at) / RFU ID3 (11757404_x_at) / Fold change /veh ID3 (11757404_x_at) / RFU PLEKHG5 (11737974_s_at) / Fold change /veh PLEKHG5 (11737974_s_at) / RFU LRRC4B (11730491_at) / Fold change /veh LRRC4B (11730491_at) / RFU GIMAP4 (11747438_a_at) / Fold change /veh GIMAP4 (11747438_a_at) / RFU KRT8 (11758183_x_at) / Fold change /veh KRT8 (11758183_x_at) / RFU CNN1 (11734310_a_at) / Fold change /veh CNN1 (11734310_a_at) / RFU VPS37D (11726825_at) / Fold change /veh VPS37D (11726825_at) / RFU C10orf10 (11716522_x_at) / Fold change /veh C10orf10 (11716522_x_at) / RFU KIR2DL2 /// KIR2DL4 /// KIR2DL5A /// KIR2DL5B /// KIR2DS1 /// KIR2DS2 /// KIR2DS3 /// KIR2DS4 /// KIR3DL3 /// KIR3DL3 /// KIR3DS1 (11738374_at) / Fold change /veh KIR2DL2 /// KIR2DL4 /// KIR2DL5A /// KIR2DL5B /// KIR2DS1 /// KIR2DS2 /// KIR2DS3 /// KIR2DS4 /// KIR3DL3 /// KIR3DL3 /// KIR3DS1 (11738374_at) / RFU C1QL1 (11718748_at) / Fold change /veh C1QL1 (11718748_at) / RFU TMPRSS4 (11747572_a_at) / Fold change /veh TMPRSS4 (11747572_a_at) / RFU HAMP (11756126_x_at) / Fold change /veh HAMP (11756126_x_at) / RFU RNFT2 (11725882_a_at) / Fold change /veh RNFT2 (11725882_a_at) / RFU NR4A2 (11747474_a_at) / Fold change /veh NR4A2 (11747474_a_at) / RFU ABCC12 (11746883_a_at) / Fold change /veh ABCC12 (11746883_a_at) / RFU TMEM136 (11760407_x_at) / Fold change /veh TMEM136 (11760407_x_at) / RFU CLDN22 /// WWC2 (11732394_at) / Fold change /veh CLDN22 /// WWC2 (11732394_at) / RFU HLA-DPB1 (11760878_x_at) / Fold change /veh HLA-DPB1 (11760878_x_at) / RFU SPINT1 (11716480_a_at) / Fold change /veh SPINT1 (11716480_a_at) / RFU GAP43 (11754022_s_at) / Fold change /veh GAP43 (11754022_s_at) / RFU A4GNT (11735810_at) / Fold change /veh A4GNT (11735810_at) / RFU PRB3 (11715151_x_at) / Fold change /veh PRB3 (11715151_x_at) / RFU TUBB4B (11761932_at) / Fold change /veh TUBB4B (11761932_at) / RFU CAPN14 (11732068_a_at) / Fold change /veh CAPN14 (11732068_a_at) / RFU TMCC2 (11721928_a_at) / Fold change /veh TMCC2 (11721928_a_at) / RFU IRGQ (11745062_a_at) / Fold change /veh IRGQ (11745062_a_at) / RFU FAM174B (11720279_a_at) / Fold change /veh FAM174B (11720279_a_at) / RFU TMPRSS4 (11748680_a_at) / Fold change /veh TMPRSS4 (11748680_a_at) / RFU FAM212B (11763350_a_at) / Fold change /veh FAM212B (11763350_a_at) / RFU PLEKHG5 (11743358_a_at) / Fold change /veh PLEKHG5 (11743358_a_at) / RFU ZSCAN30 (11745921_a_at) / Fold change /veh ZSCAN30 (11745921_a_at) / RFU CMKLR1 (11741424_a_at) / Fold change /veh CMKLR1 (11741424_a_at) / RFU LOC101060620 /// MAPK8IP1 (11723275_at) / Fold change /veh LOC101060620 /// MAPK8IP1 (11723275_at) / RFU SPTSSB (11747773_x_at) / Fold change /veh SPTSSB (11747773_x_at) / RFU PRSS12 (11739890_at) / Fold change /veh PRSS12 (11739890_at) / RFU BIN1 (11741810_x_at) / Fold change /veh BIN1 (11741810_x_at) / RFU WNT11 (11732464_a_at) / Fold change /veh WNT11 (11732464_a_at) / RFU C10orf10 (11716521_a_at) / Fold change /veh C10orf10 (11716521_a_at) / RFU C5orf56 (11738089_at) / Fold change /veh C5orf56 (11738089_at) / RFU CYB561 (11721691_x_at) / Fold change /veh CYB561 (11721691_x_at) / RFU ANKRD19P (11752326_a_at) / Fold change /veh ANKRD19P (11752326_a_at) / RFU OR2T12 /// OR2T33 /// OR2T8 (11738714_s_at) / Fold change /veh OR2T12 /// OR2T33 /// OR2T8 (11738714_s_at) / RFU VCAN (11748164_a_at) / Fold change /veh VCAN (11748164_a_at) / RFU JSRP1 (11732532_at) / Fold change /veh JSRP1 (11732532_at) / RFU KRTAP10-11 (11738290_x_at) / Fold change /veh KRTAP10-11 (11738290_x_at) / RFU MYO3A (11730013_a_at) / Fold change /veh MYO3A (11730013_a_at) / RFU EBF3 (11725865_a_at) / Fold change /veh EBF3 (11725865_a_at) / RFU CAMK2N1 (11719241_x_at) / Fold change /veh CAMK2N1 (11719241_x_at) / RFU C5orf56 (11738088_a_at) / Fold change /veh C5orf56 (11738088_a_at) / RFU OLFML3 (11715873_a_at) / Fold change /veh OLFML3 (11715873_a_at) / RFU LOC100653217 /// NTM (11731650_a_at) / Fold change /veh LOC100653217 /// NTM (11731650_a_at) / RFU MAPK11 (11762145_a_at) / Fold change /veh MAPK11 (11762145_a_at) / RFU FIZ1 (11724087_x_at) / Fold change /veh FIZ1 (11724087_x_at) / RFU OASL (11726364_x_at) / Fold change /veh OASL (11726364_x_at) / RFU SOX15 (11748057_x_at) / Fold change /veh SOX15 (11748057_x_at) / RFU CD79A (11719716_a_at) / Fold change /veh CD79A (11719716_a_at) / RFU HIST1H1D (11736915_at) / Fold change /veh HIST1H1D (11736915_at) / RFU CASKIN2 (11723855_a_at) / Fold change /veh CASKIN2 (11723855_a_at) / RFU LOC730098 (11760151_x_at) / Fold change /veh LOC730098 (11760151_x_at) / RFU OR4N2 (11742367_at) / Fold change /veh OR4N2 (11742367_at) / RFU PRRT2 (11749266_a_at) / Fold change /veh PRRT2 (11749266_a_at) / RFU SNX32 (11753110_a_at) / Fold change /veh SNX32 (11753110_a_at) / RFU CDHR5 (11726645_a_at) / Fold change /veh CDHR5 (11726645_a_at) / RFU RCAN1 (11760418_a_at) / Fold change /veh RCAN1 (11760418_a_at) / RFU FAM167A (11723789_a_at) / Fold change /veh FAM167A (11723789_a_at) / RFU FAM26E (11764081_at) / Fold change /veh FAM26E (11764081_at) / RFU ISYNA1 (11749810_s_at) / Fold change /veh ISYNA1 (11749810_s_at) / RFU ACY1 (11761880_at) / Fold change /veh ACY1 (11761880_at) / RFU 11764098_at / Fold change /veh 11764098_at / RFU SAMD14 (11745864_x_at) / Fold change /veh SAMD14 (11745864_x_at) / RFU NPB (11741838_a_at) / Fold change /veh NPB (11741838_a_at) / RFU TMPRSS6 (11731388_a_at) / Fold change /veh TMPRSS6 (11731388_a_at) / RFU KRTAP10-2 (11738614_at) / Fold change /veh KRTAP10-2 (11738614_at) / RFU ARHGAP8 /// PRR5-ARHGAP8 (11727945_x_at) / Fold change /veh ARHGAP8 /// PRR5-ARHGAP8 (11727945_x_at) / RFU KRTAP5-7 /// NADSYN1 (11734609_at) / Fold change /veh KRTAP5-7 /// NADSYN1 (11734609_at) / RFU RASL12 (11751679_a_at) / Fold change /veh RASL12 (11751679_a_at) / RFU CDKN2B (11736163_a_at) / Fold change /veh CDKN2B (11736163_a_at) / RFU PRF1 (11729649_at) / Fold change /veh PRF1 (11729649_at) / RFU, ZNF638 /// ZNF638-IT1 / Fold change vs veh, ZNF638 /// ZNF638-IT1 / RFU, PANK3 / Fold change vs veh, PANK3 / RFU, SH3YL1 / Fold change vs veh, SH3YL1 / RFU, ZEB2 / Fold change vs veh, ZEB2 / RFU, NRIP1 / Fold change vs veh, NRIP1 / RFU, PTTG1IP / Fold change vs veh, PTTG1IP / RFU, CAPN2 / Fold change vs veh, CAPN2 / RFU, MED14 / Fold change vs veh, MED14 / RFU, SNORA58 / Fold change vs veh, SNORA58 / RFU, C1orf63 / Fold change vs veh, C1orf63 / RFU, LRRFIP1 / Fold change vs veh, LRRFIP1 / RFU, NDUFAF7 / Fold change vs veh, NDUFAF7 / RFU, SLC12A2 / Fold change vs veh, SLC12A2 / RFU, IBTK / Fold change vs veh, IBTK / RFU, ESF1 / Fold change vs veh, ESF1 / Fold change vs veh, TMEM50B / RFU, TAOK1 / Fold change vs veh, TAOK1 / RFU, ACBD3 / Fold change vs veh, ACBD3 / RFU, TMA16 / Fold change vs veh, TMA16 / RFU, RWDD3 / Fold change vs veh, RWDD3 / RFU, BCAT1 / Fold change vs veh, BCAT1 / RFU, EDEM3 / Fold change vs veh, EDEM3 / RFU, TMEM33 / Fold change vs veh, TMEM33 / RFU, WDR75 / Fold change vs veh, WDR75 / RFU, AHCTF1 / Fold change vs veh, AHCTF1 / RFU, TFRC / Fold change vs veh, TFRC / RFU, ZDHHC17 / Fold change vs veh, ZDHHC17 / RFU, NOM1 / Fold change vs veh, NOM1 / RFU, ARL8B / Fold change vs veh, ARL8B / RFU, ZBTB11 / Fold change vs veh, ZBTB11 / RFU, TAMM41 / Fold change vs veh, TAMM41 / RFU, KIAA1704 /// LOC100996395 / Fold change vs veh, KIAA1704 /// LOC100996395 / RFU, ING1 / Fold change vs veh, ING1 / RFU, TRMT61B / Fold change vs veh, TRMT61B / RFU, FUBP3 / Fold change vs veh, FUBP3 / RFU, TP53 / Fold change vs veh, TP53 / RFU, TNKS2 / Fold change vs veh, TNKS2 / RFU, ZFP14 / Fold change vs veh, ZFP14 / RFU, ACTR2 / Fold change vs veh, ACTR2 / RFU, PPP3R1 / Fold change vs veh, PPP3R1 / RFU, PIK3R1 / Fold change vs veh, PIK3R1 / RFU, HNRNPA1 / Fold change vs veh, HNRNPA1 / RFU, RNF170 / Fold change vs veh, RNF170 / RFU, ZNF28 / Fold change vs veh, ZNF28 / RFU, RNGTT / Fold change vs veh, RNGTT / RFU, OGT / Fold change vs veh, OGT / RFU, BRD1 / Fold change vs veh, BRD1 / RFU, MARS / Fold change vs veh, MARS / RFU, ZNF655 / Fold change vs veh, ZNF655 / RFU, FAHD1 / Fold change vs veh, FAHD1 / RFU, BDP1 / Fold change vs veh, BDP1 / RFU, LRRCC1 / Fold change vs veh, LRRCC1 / RFU, ARID1A / Fold change vs veh, ARID1A / RFU, ZNF146 / Fold change vs veh, ZNF146 / RFU, ZNF330 / Fold change vs veh, ZNF330 / RFU, GPN3 / Fold change vs veh, GPN3 / RFU, C9orf123 / Fold change vs veh, C9orf123 / RFU, N4BP2L2 / Fold change vs veh, N4BP2L2 / RFU, ARFIP1 / Fold change vs veh, ARFIP1 / RFU, FAM179B / Fold change vs veh, FAM179B / RFU, BCL10 / Fold change vs veh, BCL10 / RFU, UHRF1BP1L / Fold change vs veh, UHRF1BP1L / RFU, BET1 / Fold change vs veh, BET1 / RFU, CNOT2 / Fold change vs veh, CNOT2 / RFU, ZNF268 / Fold change vs veh, ZNF268 / Fold change vs veh, ZNF507 / RFU, DGCR2 / Fold change vs veh, DGCR2 / RFU, WDSUB1 / Fold change vs veh, WDSUB1 / Fold change vs veh, HSP90B1 /// MIR3652 / RFU, ADSS / Fold change vs veh, ADSS / RFU, GK / Fold change vs veh, GK / RFU, ZNF148 / Fold change vs veh, ZNF148 / RFU, TAF9 / Fold change vs veh, TAF9 / RFU, SLC1A5 / Fold change vs veh, SLC1A5 / RFU, SLMO2 / Fold change vs veh, SLMO2 / RFU, ABCC4 / Fold change vs veh, ABCC4 / RFU, LOC101060439 /// RAP1B / Fold change vs veh, LOC101060439 /// RAP1B / RFU, RFX7 / Fold change vs veh, RFX7 / RFU, GTPBP10 / Fold change vs veh, GTPBP10 / RFU, CNEP1R1 / Fold change vs veh, CNEP1R1 / RFU, BIVM-ERCC5 /// ERCC5 / Fold change vs veh, BIVM-ERCC5 /// ERCC5 / RFU, ILF3 / Fold change vs veh, ILF3 / RFU 11762660_at / Fold change /veh 11762660_at / RFU VCAN (11757783_s_at) / Fold change /veh VCAN (11757783_s_at) / RFU DDX43 (11728927_at) / Fold change /veh DDX43 (11728927_at) / RFU KRT8 (11758188_x_at) / Fold change /veh KRT8 (11758188_x_at) / RFU NKD1 (11759106_at) / Fold change /veh NKD1 (11759106_at) / RFU SRD5A1 (11742802_a_at) / Fold change /veh SRD5A1 (11742802_a_at) / RFU TPSAB1 /// TPSB2 (11721975_s_at) / Fold change /veh TPSAB1 /// TPSB2 (11721975_s_at) / RFU GSTM3 (11746129_a_at) / Fold change /veh GSTM3 (11746129_a_at) / RFU IL23R (11737362_x_at) / Fold change /veh IL23R (11737362_x_at) / RFU TMEM51 (11727254_a_at) / Fold change /veh TMEM51 (11727254_a_at) / RFU PIWIL2 (11732686_x_at) / Fold change /veh PIWIL2 (11732686_x_at) / RFU ORM1 (11744905_x_at) / Fold change /veh ORM1 (11744905_x_at) / RFU CCDC152 (11743942_at) / Fold change /veh CCDC152 (11743942_at) / RFU ECM1 (11717891_a_at) / Fold change /veh ECM1 (11717891_a_at) / RFU IL23R (11748794_a_at) / Fold change /veh IL23R (11748794_a_at) / RFU TNFAIP8L3 (11732012_x_at) / Fold change /veh TNFAIP8L3 (11732012_x_at) / RFU MBOAT4 (11741988_at) / Fold change /veh MBOAT4 (11741988_at) / RFU 11764193_at / Fold change /veh 11764193_at / RFU TMEM53 (11763286_at) / Fold change /veh TMEM53 (11763286_at) / RFU MAGEB2 (11727129_at) / Fold change /veh MAGEB2 (11727129_at) / RFU TMEM200A (11744735_a_at) / Fold change /veh TMEM200A (11744735_a_at) / RFU CCDC152 (11751479_a_at) / Fold change /veh CCDC152 (11751479_a_at) / RFU FAM211A (11726209_a_at) / Fold change /veh FAM211A (11726209_a_at) / RFU RGS16 (11746705_a_at) / Fold change /veh RGS16 (11746705_a_at) / RFU VCAN (11755009_s_at) / Fold change /veh VCAN (11755009_s_at) / RFU RHOB (11743442_s_at) / Fold change /veh RHOB (11743442_s_at) / RFU RGS16 (11720943_a_at) / Fold change /veh RGS16 (11720943_a_at) / RFU RGS16 (11720944_at) / Fold change /veh RGS16 (11720944_at) / RFU, VPS4B / Fold change vs veh, VPS4B / RFU, CREB1 / Fold change vs veh, CREB1 / RFU, DNAJC13 / Fold change vs veh, DNAJC13 / RFU, GNAQ / Fold change vs veh, GNAQ / RFU, CDK5R1 / Fold change vs veh, CDK5R1 / RFU, ZRANB3 / Fold change vs veh, ZRANB3 / RFU, CUL4A / Fold change vs veh, CUL4A / RFU, CCNY / Fold change vs veh, CCNY / RFU, UFL1 / Fold change vs veh, UFL1 / RFU, COG3 / Fold change vs veh, COG3 / RFU, DIAPH2 / Fold change vs veh, DIAPH2 / RFU, SKA2 / Fold change vs veh, SKA2 / RFU, AFF3 / Fold change vs veh, AFF3 / RFU, LMF1 / Fold change vs veh, LMF1 / RFU, IPO11 / Fold change vs veh, IPO11 / RFU, DFFB / Fold change vs veh, DFFB / RFU, FOXP1 / Fold change vs veh, FOXP1 / RFU, CARD8 / Fold change vs veh, CARD8 / RFU, STRN3 / Fold change vs veh, STRN3 / RFU, ADK / Fold change vs veh, ADK / RFU, RASSF2 / Fold change vs veh, RASSF2 / RFU, WIPF1 / Fold change vs veh, WIPF1 / RFU, LARP1B / Fold change vs veh, LARP1B / RFU, RASA1 / Fold change vs veh, RASA1 / RFU, RB1 / Fold change vs veh, RB1 / RFU, PPFIA1 / Fold change vs veh, PPFIA1 / RFU, MAT2A / Fold change vs veh, MAT2A / RFU, CCT5 / Fold change vs veh, CCT5 / RFU, WDR92 / Fold change vs veh, WDR92 / RFU, CUX1 / Fold change vs veh, CUX1 / RFU, TTC7A / Fold change vs veh, TTC7A / RFU, TMEM135 / Fold change vs veh, TMEM135 / RFU, DEPTOR / Fold change vs veh, DEPTOR / RFU, CPM / Fold change vs veh, CPM / RFU, DNAJB6 / Fold change vs veh, DNAJB6 / RFU, CACNA2D3 / Fold change vs veh, CACNA2D3 / RFU, DTX4 / Fold change vs veh, DTX4 / RFU, TFCP2 / Fold change vs veh, TFCP2 / RFU, GMCL1 /// GMCL1P1 / Fold change vs veh, GMCL1 /// GMCL1P1 / RFU, AEBP2 / Fold change vs veh, AEBP2 / RFU, SNHG1 /// SNORD22 /// SNORD25 /// SNORD26 /// SNORD27 /// SNORD28 /// SNORD29 /// SNORD31 / Fold change vs veh, SNHG1 /// SNORD22 /// SNORD25 /// SNORD26 /// SNORD27 /// SNORD28 /// SNORD29 /// SNORD31 / Fold change (Aza/veh), C12orf56 (ProbeSet 11735607_a_at) / Fold change (ACY-1035/veh), C12orf56 (ProbeSet 11735607_a_at) / Fold change (Aza/veh), FGFR1OP (ProbeSet 11751329_s_at) / Fold change (ACY-1035/veh), FGFR1OP (ProbeSet 11751329_s_at) / Fold change (Aza/veh), VPS36 (ProbeSet 11739960_a_at) / Fold change (ACY-1035/veh), VPS36 (ProbeSet 11739960_a_at) / RFU SYPL1 (11715823_x_at) / Fold change /veh SYPL1 (11715823_x_at) / RFU IGFBP7 (11715501_s_at) / Fold change /veh IGFBP7 (11715501_s_at) / RFU REEP3 (11722064_at) / Fold change /veh REEP3 (11722064_at) / RFU IGLL1 (11728026_x_at) / Fold change /veh IGLL1 (11728026_x_at): dose or concentration left out as unconfirmed
# Details: MV-4-11 cells, 48 hours
structure (smiles),measurement,value
Nc1ccc(-c2cccs2)cc1NC(=O)c1ccc2c(c1)cc(C1CC1)n2CCN1CCOCC1 [ACY-1035],Fold change /veh TMCC2 (11721928_a_at),1.04
